Drawing on patent US20230167105A1, “BCL-2 PROTEIN INHIBITORS” (Recurium IP Holdings, LLC, priority 2020, published 2023), this text covers IC50 for 12 compounds.

For the test, the system named is MOLT-4 cells. Kind of test: MOLT-4 Cell Proliferation Assay (CellTiter-Glo). Type of test: cell-based. To be noted: Homo sapiens, 72 h, read-out: MOLT-4 CTG IC50. The procedure: Cell proliferation was measured using the CellTiter-Glo® Luminescent Cell Viability Assay. The assay involved the addition of a single reagent (CellTiter-Glo® Reagent) directly to cells cultured in serum-supplemented medium. MOLT-4 cells (ATCC, CRL-1582) were cultured according to ATCC recommendations and were seeded at 50,000 cells per well.
Each compound evaluated was prepared as a DMSO stock solution (10 mM). Compounds were tested in duplicate on each plate, with a 10-point serial dilution curve (1:3 dilution). The highest compound concentration was 10 μM (final), with a 0.1% final DMSO concentration. Plates were then incubated at 37° C., 5% CO2 for 72 h, cell plates were equilibrated at rt for approximately 30 mins. An equi-volume amount of CellTiter-Glo® Reagent (100 μL) was added to each well. Plates were mixed for 2 mins on an orbital shaker to induce cell lysis and then incubated at rt for 10 mins to stabilize the luminescent signal. Luminescence was recorded using a Envision plate reader according to CellTiter-Glo protocol. IC50 of each compound was calculated using GraphPad Prism by nonlinear regression analysis.
(In ATP-based viability assays light output follows the ATP content of the culture.)

Some results are limits rather than exact numbers.

In the case of `CN(CCCCCNc1cccc2c1C(=O)N(C1CCC(=O)NC1=O)C2=O)CC[C@H](CSc1ccccc1)Nc1ccc(S(=O)(=O)NC(=O)c2ccc(N3CCN(CC4=C(C56CC(C(F)F)(C5)C6)CC(C)(C)CC4)CC3)cc2)cc1S(=O)(=O)C(F)(F)F` (stereo partly drawn) [Example 20, 4-(4-((2-(3-(difluoromethyl)bicycle[1.1.1]pentan-1-yl)-4,4-dimethylcyclohex-1-en-1-yl)methyl)piperazin-1-yl)-N-((4-(((2R)-4-((5-((2-(2,6-dioxopiperidin-3-yl)-1,3-dioxoisoindolin-4-yl)amino)pentyl)(methyl)amino)-1-(phenylthio)butan-2-yl)amino)-3-((trifluoromethyl)sulfonyl)phenyl)sulfonyl)benzamide], the IC50 was no more than 50 nM.
Turning to `CCC12CC(C3=C(CN4CCN(c5ccc(C(=O)NS(=O)(=O)c6ccc(N[C@H](CCN7CCN(CCCCCNc8cccc9c8C(=O)N(C8CCC(=O)NC8=O)C9=O)CC7)CSc7ccccc7)c(S(=O)(=O)C(F)(F)F)c6)cc5)CC4)CCC(C)(C)C3)(C1)C2` (stereo partly drawn) [Example 10, N-((4-(((2R)-4-(4-(5-((2-(2,6-dioxopiperidin-3-yl)-1,3-dioxoisoindolin-4-yl)amino)pentyl)piperazin-1-yl)-1-(phenylthio)butan-2-yl)amino)-3-((trifluoromethyl)sulfonyl)phenyl)sulfonyl)-4-(4-((2-(3-ethylbicyclo[1.1.1]pentan-1-yl)-4,4-dimethylcyclohex-1-en-1-yl)methyl)piperazin-1-yl)benzamide], the IC50 was 50 to 150 nM.
For the compound `CC1(C)CCC(CN2CCN(c3ccc(C(=O)NS(=O)(=O)c4ccc(N[C@H](CCN5CCN(CCCCNc6ccc7c(c6)C(=O)N(C6CCC(=O)NC6=O)C7=O)CC5)CSc5ccccc5)c(S(=O)(=O)C(F)(F)F)c4)cc3)CC2)=C(C23CC(C(F)F)(C2)C3)C1` (stereo partly drawn) [Example 13, 4-[4-[[2-[3-(difluoromethyl)-1-bicyclo[1.1.1]pentanyl]-4,4-dimethyl-cyclohexen-1-yl]methyl]piperazin-1-yl]-N-[4-[[(1R)-3-[4-[4-[[2-(2,6-dioxo-3-piperidyl)-1,3-dioxo-isoindolin-5-yl]amino]butyl]piperazin-1-yl]-1-(phenylsulfanylmethyl)propyl]amino]-3-(trifluoromethylsulfonyl)phenyl]sulfonyl-benzamide], the IC50 was no more than 50 nM.
The same measure for `Cc1cc([C@@H](C(=O)N2C[C@H](O)C[C@H]2C(=O)N[C@@H](CC(=O)NCCCCCC(=O)N2CCN(CC[C@H](CSc3ccccc3)Nc3ccc(S(=O)(=O)NC(=O)c4ccc(N5CCN(CC6=C(C78CC(C(F)F)(C7)C8)CC(C)(C)CC6)CC5)cc4)cc3S(=O)(=O)C(F)(F)F)CC2)c2ccc(-c3scnc3C)cc2)C(C)C)on1` [Example 56, (2S,4R)—N—((S)-3-((6-(4-((R)-3-((4-(N-(4-(4-((2-(3-(difluoromethyl)bicyclo[1.1.1]pentan-1-yl)-4,4-dimethylcyclohex-1-en-1-yl)methyl)piperazin-1-yl)benzoyl)sulfamoyl)-2-((trifluoromethyl)sulfonyl)phenyl)amino)-4-(phenylthio)butyl)piperazin-1-yl)-6-oxohexyl)amino)-1-(4-(4-methylthiazol-5-yl)phenyl)-3-oxopropyl)-4-hydroxy-1-((S)-3-methyl-2-(3-methylisoxazol-5-yl)butanoyl)pyrrolidine-2-carboxamide]: no less than 150 nM.
The figure for `CC1(C)CCC(CN2CCN(c3ccc(C(=O)NS(=O)(=O)c4ccc(N[C@H](CCN5CCN(CCCCCNc6cccc7c6C(=O)N(C6CCC(=O)NC6=O)C7=O)CC5)CSc5ccccc5)c(S(=O)(=O)C(F)(F)F)c4)cc3)CC2)=C(C23CC(C)(C2)C3)C1` (stereo partly drawn) [Example 7, 4-(4-((4,4-dimethyl-2-(3-methylbicyclo[1.1.1]pentan-1-yl)cyclohex-1-en-1-yl)methyl)piperazin-1-yl)-N-((4-(((2R)-4-(4-(5-((2-(2,6-dioxopiperidin-3-yl)-1,3-dioxoisoindolin-4-yl)amino)pentyl)piperazin-1-yl)-1-(phenylthio)butan-2-yl)amino)-3-((trifluoromethyl)sulfonyl)phenyl)sulfonyl)benzamide] is 50 to 150 nM; for `CN(CCCNc1cccc2c1C(=O)N(C1CCC(=O)NC1=O)C2=O)CC[C@H](CSc1ccccc1)Nc1ccc(S(=O)(=O)NC(=O)c2ccc(N3CCN(CC4=C(C56CC(C(F)F)(C5)C6)CC(C)(C)CC4)CC3)cc2)cc1S(=O)(=O)C(F)(F)F` (stereo partly drawn) [Example 19, 4-(4-((2-(3-(difluoromethyl)bicyclo[1.1.1]pentan-1-yl)-4,4-dimethylcyclohex-1-en-1-yl)methyl)piperazin-1-yl)-N-((4-(((2R)-4-((3-((2-(2,6-dioxopiperidin-3-yl)-1,3-dioxoisoindolin-4-yl)amino)propyl)(methyl)amino)-1-(phenylthio)butan-2-yl)amino)-3-((trifluoromethyl)sulfonyl)phenyl)sulfonyl)benzamide] it is 50 to 150 nM; for `CC1(C)CCC(CN2CCN(c3ccc(C(=O)NS(=O)(=O)c4ccc(N[C@H](CCN5CCN(CCCCCNc6cccc7c6C(=O)N(C6CCC(=O)NC6=O)C7=O)CC5)CSc5ccccc5)c(S(=O)(=O)C(F)(F)F)c4)cc3)CC2)=C(C23CC(C(F)F)(C2)C3)C1` (stereo partly drawn) [Example 2, 4-(4-((2-(3-(difluoromethyl)bicyclo[1.1.1]pentan-1-yl)-4,4-dimethylcyclohex-1-en-1-yl)methyl)piperazin-1-yl)-N-((4-(((2R)-4-(4-(5-((2-(2,6-dioxopiperidin-3-yl)-1,3-dioxoisoindolin-4-yl)amino)pentyl)piperazin-1-yl)-1-(phenylthio)butan-2-yl)amino) ((trifluoromethyl)sulfonyl)phenyl)sulfonyl)benzamide] it is no more than 50 nM.
The same measure for `CC1(C)CCC(CN2CCN(c3ccc(C(=O)NS(=O)(=O)c4ccc(N[C@H](CCN5CCN(CCCCc6ccc7c(c6)C(=O)N(C6CCC(=O)NC6=O)C7=O)CC5)CSc5ccccc5)c(S(=O)(=O)C(F)(F)F)c4)cc3)CC2)=C(C23CC(C(F)F)(C2)C3)C1` (stereo partly drawn) [Example 17, 4-(4-((2-(3-(difluoromethyl)bicyclo[1.1.1]pentan-1-yl)-4,4-dimethylcyclohex-1-en-1-yl)methyl)piperazin-1-yl)-N-((4-(((2R)-4-(4-(4-(2-(2,6-dioxopiperidin-3-yl)-1,3-dioxoisoindolin-5-yl)butyl)piperazin-1-yl)-1-(phenylthio)butan-2-yl)amino)-3-((trifluoromethyl)sulfonyl)phenyl)sulfonyl)benzamide]: no more than 50 nM; for `CC1(C)CCC(CN2CCN(c3ccc(C(=O)NS(=O)(=O)c4ccc(N[C@H](CCN5CCN(CCCNc6cccc7c6C(=O)N(C6CCC(=O)NC6=O)C7=O)CC5)CSc5ccccc5)c(S(=O)(=O)C(F)(F)F)c4)cc3)CC2)=C(C23CC(C(F)F)(C2)C3)C1` (stereo partly drawn) [Example 5, 4-[4-[[2-[3-(difluoromethyl)-1-bicyclo [1.1.1]pentanyl]-4,4-dimethyl-cyclohexen-1-yl]methyl]piperazin-1-yl]-N-[4-[[(1R)-3-[4-[3-[[2-(2,6-dioxo-3-piperidyl)-1,3-dioxo-isoindolin-4-yl]amino]propyl]piperazin-1-yl]-1-(phenylsulfanylmethyl)propyl]amino]-3-(trifluoromethylsulfonyl)phenyl]sulfonyl-benzamide]: no more than 50 nM; for `CN(CCCCCCNc1cccc2c1C(=O)N(C1CCC(=O)NC1=O)C2=O)CC[C@H](CSc1ccccc1)Nc1ccc(S(=O)(=O)NC(=O)c2ccc(N3CCN(CC4=C(C56CC(C(F)F)(C5)C6)CC(C)(C)CC4)CC3)cc2)cc1S(=O)(=O)C(F)(F)F` (stereo partly drawn) [Example 21, 4-(4-((2-(3-(difluoromethyl)bicyclo [1.1.1]pentan-1-yl)-4,4-dimethylcyclohex-1-en-1-yl)methyl)piperazin-1-yl)-N-((4-(((2R)-4-((6-((2-(2,6-dioxopiperidin-3-yl)-1,3-dioxoisoindolin-4-yl)amino)hexyl)(methyl)amino)-1-(phenylthio)butan-2-yl)amino)-3-((trifluoromethyl)sulfonyl)phenyl)sulfonyl)benzamide]: 50 to 150 nM.
`Cc1ncsc1-c1ccc(CNC(=O)[C@@H]2C[C@@H](O)CN2C(=O)[C@@H](NC(=O)CCCCCC(=O)N2CCN(CC[C@H](CSc3ccccc3)Nc3ccc(S(=O)(=O)NC(=O)c4ccc(N5CCN(CC6=C(C78CC(C(F)F)(C7)C8)CC(C)(C)CC6)CC5)cc4)cc3S(=O)(=O)C(F)(F)F)CC2)C(C)(C)C)cc1` [Example 45, (2S,4R)-1-((S)-2-(7-(4-((R)-3-((4-(N-(4-(4-((2-(3-(difluoromethyl)bicyclo[1.1.1]pentan-1-yl)-4,4-dimethylcyclohex-1-en-1-yl)methyl)piperazin-1-yl)benzoyl)sulfamoyl)-2-((trifluoromethyl)sulfonyl)phenyl)amino)-4-(phenylthio)butyl)piperazin-1-yl)-7-oxoheptanamido)-3,3-dimethylbutanoyl)-4-hydroxy-N-(4-(4-methylthiazol-5-yl)benzyl)pyrrolidine-2-carboxamide]: the IC50 is no less than 150 nM.
The figure for `CC1(C)CCC(CN2CCN(c3ccc(C(=O)NS(=O)(=O)c4ccc(N[C@H](CCN5CCN(CCCCNc6cccc7c6C(=O)N(C6CCC(=O)NC6=O)C7=O)CC5)CSc5ccccc5)c(S(=O)(=O)C(F)(F)F)c4)cc3)CC2)=C(C23CC(C(F)F)(C2)C3)C1` (stereo partly drawn) [Example 8, 4-[4-[[2-[3-(difluoromethyl)-1-bicyclo[1.1.1]pentanyl]-4,4-dimethyl-cyclohexen-1-yl]methyl]piperazin-1-yl]-N-[4-[[(1R)-3-[4-[4-[[2-(2,6-dioxo-3-piperidyl)-1,3-dioxo-isoindolin-4-yl]amino]butyl]piperazin-1-yl]-1-(phenylsulfanylmethyl)propyl]amino]-3-(trifluoromethylsulfonyl)phenyl]sulfonyl-benzamide] is no more than 50 nM.

The IC50 is the point on the concentration scale where inhibition reaches its midpoint.
